Results reported in US20190262404A1, “PHARMACEUTICAL COMPOSITION FOR PREVENTING OR TREATING IMMUNE DISEASE OR INFLAMMATORY DISEASE INCLUDING INFLAMMATORY STIMULATED MESENCHYMAL STEM CELL” (SCM LIFESCIENCE CO., LTD., priority 2016, published 2019).
Read-outs that look alike come from different tables or passages of the source.

Legend:
Format in all cases: cell-based, human
[1] = test system: PHA-activated PBMCs; assay: ELISA of proinflammatory cytokines, MSCs co-cultured with PHA-activated PBMCs, medium with nAChR antagonist or agonist
Protocol: (§1) The medium was harvested from nAChR antagonist or agonist-containing co-culture experiments. The secreted proinflammatory cytokines were quantified using the ELISA kits for TNF-α (BD Biosciences; cat. #555212) and IFN-γ (BD Biosciences; cat. #555141). The medium in which MLR- or PHA-activated PBMCs were cultured was used to carry out the assay for NGF (R&D Systems, Minneapolis, Minn., USA; cat. # DY256-05) and BDNF (R&D Systems; cat. # DBD00).
(§2) α-Bungarotoxin (EMD Millipore; cat. #203980), an nAChRα7 antagonist, was added to the medium at the concentration of […]. As cholinergic agonists, ACh chloride (Sigma; cat. # A6625) and carbachol (EMD Millipore; cat. #212385) were used at the concentrations of 1 nM and 10 pM, respectively, and the experiments were conducted.
(§3) In order to confirm ACh-nAChR pathway mechanism of MSCs under the inflammatory conditions, experiments were performed according to the methods described in Experimental Examples 1-2 and 1-10. The mixed lymphocyte reaction (MLR) condition was set such that PBMCs obtained from different donors were cultured together, and the phytohemagglutinin (PHA) treatment condition was set such that PBMCs were treated with PHA. According to inflammatory conditions, each PBMCs only group (P and Po) obtained from different donors; MSCs group co-cultured in mixed lymphocyte reaction (MLR) condition (MSC in MLR); mixed lymphocyte reaction condition group without MSCs (MLR); or MSCs group co-cultured in phytohemagglutinin (PHA) treatment condition (MSC in P^PHA) were placed. A cholinergic antagonist such as α-bungarotoxin (α-BTX, an antagonist of nAChRα7); a cholinergic agonist such as ACh chloride (ACh-Cl, an agonist of AChR); or a non-specific cholinergic agonist such as carbachol was added to the medium, and the activity of TNF-α and IFN-γ of MSCs by each inflammatory condition was confirmed. The results are illustrated in FIG. 14.

[2] = test system: MLR-activated PBMCs; assay: ELISA of proinflammatory cytokines, MSCs co-cultured with MLR-activated PBMCs, medium with nAChR antagonist or agonist
Protocol: as §1, §2, §3

[3] = test system: MLR- or PHA-activated PBMCs; assay: MSCs co-cultured with MLR- or PHA-activated PBMCs in medium supplemented with carbachol; settings: carbachol 10 pM added to MSCs culture medium under the inflammatory condition (FIGS. 15A to 15D)
[4] = MSCs + PHA-activated PBMCs, α-BTX 1 M or ACh-Cl 1 nM added to the medium
[5] = MSCs + MLR-activated PBMCs, α-BTX 1 M or ACh-Cl 1 nM added to the medium

## CC(=O)OCC[N+](C)(C)C.[Cl-] [ACh-Cl, ACh chloride]
[1]; [4]
  IFN-γ: significantly inhibited
  TNF-α: significantly inhibited
[2]; [5]
  IFN-γ: significantly inhibited
  TNF-α: significantly inhibited

## C[N+](C)(C)CCOC(N)=O [carbachol]
[3]
  inflammatory cytokine release: inhibited
  lymphocyte proliferation: inhibited the lymphocyte proliferation

## α-Bungarotoxin [α-BTX]
[1]
  IFN-γ: activated again
  TNF-α: activated again
[2]
  IFN-γ: activated again
  TNF-α: activated again
